These results are taken from US20250171432A1, “COMPOUNDS AND METHODS OF USE” (Tango Therapeutics, Inc., priority 2022, published 2025).

SMILES strings stand for the structures. pIC50: −log10 of the molar value.

Assay type in all cases: cell-based
Experiment [1] has as its system HAP1 MTAP-deleted cell line. As to the kind of experiment: Viability assay (CellTiter-Glo), HAP1 MTAP-deleted. The following applies: HAP1 MTAP-deleted cells, 7 days. A digest of the protocol:
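HAP1 MTAP-deleted and MTAP-intact cells seeded, then dosed next day (n=3, 0.2% DMSO) and grown 7 days. Viability by CellTiter-Glo luminescence, expressed as % of DMSO control per cell line.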

Experiment [2] deals with SDMA (PRMT5 activity) in HAP1 MTAP-intact cell line. As to the kind of experiment: SDMA in-cell western assay, HAP1 MTAP-intact. The following applies: SDMA in-cell western, HAP1 MTAP-intact cells, 24 hours compound incubation.
For experiment [3], the system named is SDMA (PRMT5 activity) in HAP1 MTAP-deleted cell line. As to the kind of experiment: SDMA in-cell western assay, HAP1 MTAP-deleted. The following applies: for pIC50 / IC90: SDMA in-cell western, HAP1 MTAP-deleted cells, 24 hours compound incubation; for Hap1 MTAP intact/deleted ratio: ratio of SDMA IC50 in HAP1 MTAP-intact to HAP1 MTAP-deleted cell line.

For the molecule `CCc1cc(NC(=O)C(=O)N2C[C@@H](C)CC[C@@H]2c2ccc3ccc(C4CCN(C)CC4)cc3c2)cnc1N` [Compound 123, N-(6-amino-5-ethylpyridin-3-yl)-2-((2R,5S)-5-methyl-2-(7-(1-methylpiperidin-4-yl)naphthalen-2-yl)piperidin-1-yl)-2-oxoacetamide], the pIC50 was more than 7.00 in experiment [1] (Homo sapiens, 168 h); less than 7.30 in experiment [2] (Homo sapiens, HAP1, 24 h); more than 8.30 in experiment [3] (Homo sapiens). In experiment [3] (Homo sapiens), this molecule yielded an IC90 of less than 75 nM. For the same molecule, in experiment [3], the “Hap1 MTAP intact/deleted ratio” value was “A (“A” indicates an IC50 ratio greater than or equal to 30 fold)”.

Regarding `CCc1cc(NC(=O)C(=O)N2C[C@@H](C)CC[C@@H]2c2ccc3sc(C(C)CN4CCCC4)nc3c2)cnc1N` (single isomer, unassigned) [Compound 106], in experiment [1], the pIC50 was more than 7.00. Moreover, in experiment [2], the pIC50 was 7.30 to 8.30. For the same molecule, in experiment [3], the pIC50 was more than 8.30, the IC90 is less than 75 nM and the “Hap1 MTAP intact/deleted ratio” value is “B (“B” indicates an IC50 ratio greater than or equal to 15 fold but lower than 30 fold)”.

For `CCc1cc(NC(=O)C(=O)N2C[C@@H](C)CC[C@@H]2c2cccc(OC3CCN(C)CC3)c2)cnc1N` [Compound 58, N-(6-amino-5-ethylpyridin-3-yl)-2-((2R,5S)-5-methyl-2-(3-((1-methylpiperidin-4-yl)oxy)phenyl)piperidin-1-yl)-2-oxoacetamide], the pIC50 in experiment [1] (Homo sapiens, 168 h) is more than 7.00; in experiment [2] (Homo sapiens, HAP1, 24 h), less than 7.30; in experiment [3] (Homo sapiens) it was more than 8.30. Besides, in experiment [3] (Homo sapiens), the IC90 was less than 75 nM. For the same molecule, in experiment [3], the “Hap1 MTAP intact/deleted ratio” value was “A (“A” indicates an IC50 ratio greater than or equal to 30 fold)”.

For `CCc1cc(NC(=O)C(=O)N2C[C@@H](C)CC[C@@H]2c2ccc3cc(C#N)c(C4CCN(C)CC4)nc3c2)cnc1N` [Compound 63, N-(6-amino-5-ethylpyridin-3-yl)-2-((2R,5S)-2-(3-cyano-2-(1-methylpiperidin-4-yl)quinolin-7-yl)-5-methylpiperidin-1-yl)-2-oxoacetamide], the pIC50 in experiment [1] (Homo sapiens, 168 h) was more than 7.00; in experiment [2] (Homo sapiens, HAP1, 24 h) it was less than 7.30; in experiment [3] (Homo sapiens) it was more than 8.30. Besides, the IC90 in experiment [3] (Homo sapiens) is less than 75 nM. Moreover, in experiment [3], the “Hap1 MTAP intact/deleted ratio” value is listed as “A (“A” indicates an IC50 ratio greater than or equal to 30 fold)”.

On to `COc1ncc(NC(=O)C(=O)N2C[C@@H](C)CC[C@@H]2c2ccc3sc([C@H]4CN(C)CC4(C)C)nc3c2)cc1C(N)=O` (single isomer, unassigned) [Compound 36], for which the pIC50 was more than 7.00 in experiment [1] (Homo sapiens, 168 h); less than 7.30 in experiment [2] (Homo sapiens, HAP1, 24 h); more than 8.30 in experiment [3] (Homo sapiens). The molecule further yielded an IC90 in experiment [3] (Homo sapiens) of less than 75 nM. Moreover, the “Hap1 MTAP intact/deleted ratio” value in experiment [3] was “A (“A” indicates an IC50 ratio greater than or equal to 30 fold)”.

On to `COc1ncc(NC(=O)C(=O)N2C[C@@H](C)CC[C@@H]2c2ccc3sc(C4CN(C)C(C)(C)C4)nc3c2)cc1C(N)=O` (mixture of isomers) [Compound 77, 2-methoxy-5-(2-((2R,5S)-5-methyl-2-(2-(1,5,5-trimethylpyrrolidin-3-yl)benzo[d]thiazol-5-yl)piperidin-1-yl)-2-oxoacetamido)nicotinamide], for which the pIC50 in experiment [1] (Homo sapiens, 168 h) is more than 7.00; in experiment [2] (Homo sapiens, HAP1, 24 h), less than 7.30; in experiment [3] (Homo sapiens), more than 8.30. Moreover, in experiment [3] (Homo sapiens), the IC90 was less than 75 nM. Moreover, in experiment [3], the “Hap1 MTAP intact/deleted ratio” value is recorded as “A (“A” indicates an IC50 ratio greater than or equal to 30 fold)”.

In the case of `COc1ncc(NC(=O)C(=O)N2C[C@@H](C)CC[C@@H]2c2ccc3cn([C@H]4CCOC4)nc3c2)cc1C(N)=O` (racemic) [Compound 97, 2-methoxy-5-[[2-oxo-2-[rac-(2R,5S)-5-methyl-2-(2-tetrahydrofuran-3-ylindazol-6-yl)-1-piperidyl]acetyl]amino]pyridine-3-carboxamide], the pIC50 was 6.00 to 7.00 in experiment [1] (Homo sapiens, 168 h); less than 7.30 in experiment [2] (Homo sapiens, HAP1, 24 h); 7.30 to 8.30 in experiment [3] (Homo sapiens). The IC90 in experiment [3] (Homo sapiens) is 75 to 125 nM. Moreover, the “Hap1 MTAP intact/deleted ratio” value in experiment [3] was “A (“A” indicates an IC50 ratio greater than or equal to 30 fold)”.

The term pIC50 denotes the negative decadic logarithm of the IC50, by convention in mol/L. A high value points to a small IC50. Usually IC90 stands for the concentration needed for an effect of 90%. A high value points to a need for much substance.
